Settings: Liquid, Buoyancy - hydrostatic balance with magnetic suspension - one sinker

C [methane]
Settings	mass density [kg/m3]
105 K, 185.5 kPa	432.098
105 K, 478.95 kPa	432.339
105 K, 973.88 kPa	432.743
105 K, 1970.8 kPa	433.554
105 K, 5044.6 kPa	435.981
115 K, 479.33 kPa	417.827
115 K, 973.28 kPa	418.319
115 K, 1970 kPa	419.298
125 K, 477.88 kPa	402.38
125 K, 972.71 kPa	402.99
125 K, 1970.4 kPa	404.194
125 K, 5112.4 kPa	407.803
135 K, 783.75 kPa	386.1
135 K, 1001.2 kPa	386.441
135 K, 2014.3 kPa	387.992
135 K, 5208.9 kPa	392.557
